Read-outs that look alike come from different tables or passages of the source.
Tested on: BRD
Test: BRD reducing activity with added metal ions and inhibitors
Assay type: biochemical, Micrococcus luteus IFO 13867
[1] = addition level 1 mM, activity without addition = 100%
[2] = addition level 0.1 mM, activity without addition = 100%
[3] = addition level 0.01 mM, activity without addition = 100%

c1cnc2c(c1)ccc1cccnc12 [1,10-Phenanthroline]
Relative activity [1]: 90%

O=C1NC(=O)C(c2ccccc2)(c2ccccc2)N1 [5,5-Diphenylhydantoin]
Relative activity (addition level 0.5 mM, activity without addition = 100%): 99%

[Cl-].[Cl-].[Co+2] [CoCl2]
Relative activity: 99%

O=S(=O)([O-])[O-].[Cu+2] [CuSO4]
Relative activity [2]: 6% | Relative activity [1]: 5% | Inhibition of the enzyme (result in words): inhibited

O=C(O)c1cc(SSc2ccc([N+](=O)[O-])c(C(=O)O)c2)ccc1[N+](=O)[O-] [DTNB]
Relative activity [3]: 93%

O=C(O)CN(CCN(CC(=O)O)CC(=O)O)CC(=O)O [EDTA]
Relative activity: 88%

O=C(O)CI [Iodoacetic acid]
Relative activity: 89%

O=S(=O)([O-])[O-].[Mg+2] [MgSO4]
Relative activity [1]: 99%

[Cl][Mn][Cl] [MnCl2]
Relative activity [1]: 89%

CCN1C(=O)C=CC1=O [NEM]
Relative activity [1]: 94%

O=C(O)c1cc[c]([Hg][Cl])cc1 [PCMB]
Relative activity [2]: 78%

O=S(=O)(F)Cc1ccccc1 [PMSF, phenylmethylsulfonyl fluoride]
Relative activity [1]: 89%

O=c1c(O)c(-c2ccc(O)c(O)c2)oc2cc(O)cc(O)c12 [Quercetin]
Relative activity [3]: 94%

O=S(=O)([O-])[O-].[Zn+2] [ZnSO4]
Relative activity [1]: 99%

— patent US7033808B2, “Carbonyl reductase, gene thereof and method of using the same” (Kaneka Corporation, priority 2000, dated 2006)
